US10301320B2, “Compositions and methods of modulating 15-PGDH activity” (CASE WESTERN RESERVE UNIVERSITY, priority 2012, dated 2019)

Tests used:
[1] = test system: V9m reporter cell line expressing a 15-PGDH luciferase fusion construct; experiment: 15-PGDH-luciferase fusion gene reporter induction, V9m cell line; assay type: cell-based; conditions: […], % increased luciferase activity over basal level
Procedure, shortened: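 Colon cancer reporter lines were treated with compound at 2.5 uM or 7.5 uM. Luciferase activity is expressed as % increase over basal level in DMSO vehicle-treated cells, where 100 means a doubling.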

C57BL/6J mice = experiment: Survival after whole body irradiation; assay type: in vivo

## CCCC[S+]([O-])c1sc2nc(-c3cccs3)cc(-c3ccccc3)c2c1N (stereo not drawn) [SW033291, 2-(butylsulfinyl)-4-phenyl-6-(thiophen-2-yl)thieno[2,3-b]pyridin-3-amine]
[1]
  V9M reporter activity ([…]): 93.16%
[1]; 100 = doubling
  V9M reporter activity ([…]): 98.24%
C57BL/6J mice; 11 Gy, 5 mg/kg IP daily for 7 doses
  Survival longer than vehicle control: 48 h
C57BL/6J mice; 11 Gy, any of the dosing schedules
  Survival longer than vehicle control, on average: 1 to 2 days
C57BL/6J mice; Table 7, 7 Gy, Day 5
  Number of mice surviving: 3
C57BL/6J mice; Table 7, 7 Gy, Day 6
  Number of mice surviving: 3
C57BL/6J mice; Table 7, 7 Gy, Day 7
  Number of mice surviving: 3
C57BL/6J mice; Table 7, 7 Gy, Day 8
  Number of mice surviving: 3
C57BL/6J mice; Table 7, 7 Gy, Day 9
  Number of mice surviving: 3
C57BL/6J mice; Table 7, 7 Gy, Day 10
  Number of mice surviving: 3
C57BL/6J mice; Table 7, 7 Gy, Day 11
  Number of mice surviving: 3
C57BL/6J mice; Table 7, 7 Gy, Day 12
  Number of mice surviving: 3
C57BL/6J mice; Table 7, 7 Gy, Day 13
  Number of mice surviving: 3
C57BL/6J mice; Table 7, 7 Gy, Day 14
  Number of mice surviving: 3
C57BL/6J mice; Table 7, 7 Gy, Day 15
  Number of mice surviving: 3
C57BL/6J mice; Table 7, 7 Gy, Day 25 (Looks Healthy)
  Condition of surviving mice: Healthy
C57BL/6J mice; Table 7, 9 Gy, Day 5
  Number of mice surviving: 3
C57BL/6J mice; Table 7, 9 Gy, Day 6
  Number of mice surviving: 3
C57BL/6J mice; Table 7, 9 Gy, Day 7
  Number of mice surviving: 3
C57BL/6J mice; Table 7, 9 Gy, Day 8
  Number of mice surviving: 3
C57BL/6J mice; Table 7, 9 Gy, Day 9
  Number of mice surviving: 3
C57BL/6J mice; Table 7, 9 Gy, Day 10
  Number of mice surviving: 3
C57BL/6J mice; Table 7, 9 Gy, Day 11
  Number of mice surviving: 3
C57BL/6J mice; Table 7, 9 Gy, Day 12
  Number of mice surviving: 2
C57BL/6J mice; Table 7, 9 Gy, Day 13
  Number of mice surviving: 2
C57BL/6J mice; Table 7, 9 Gy, Day 14
  Number of mice surviving: 1
C57BL/6J mice; Table 7, 9 Gy, Day 15
  Number of mice surviving: 0
C57BL/6J mice; Table 7, 11 Gy, Day 5
  Number of mice surviving: 3
C57BL/6J mice; Table 7, 11 Gy, Day 6
  Number of mice surviving: 3
C57BL/6J mice; Table 7, 11 Gy, Day 7
  Number of mice surviving: 3
C57BL/6J mice; Table 7, 11 Gy, Day 8
  Number of mice surviving: 3
C57BL/6J mice; Table 7, 11 Gy, Day 9
  Number of mice surviving: 2
C57BL/6J mice; Table 7, 11 Gy, Day 10
  Number of mice surviving: 0
C57BL/6J mice; Table 8, 11 Gy, 1 dose daily for 7 days, Day 5
  Number of mice surviving: 3
C57BL/6J mice; Table 8, 11 Gy, 1 dose daily for 7 days, Day 6
  Number of mice surviving: 3
C57BL/6J mice; Table 8, 11 Gy, 1 dose daily for 7 days, Day 7
  Number of mice surviving: 3
C57BL/6J mice; Table 8, 11 Gy, 1 dose daily for 7 days, Day 8
  Number of mice surviving: 2
C57BL/6J mice; Table 8, 11 Gy, 1 dose daily for 7 days, Day 9
  Number of mice surviving: 1
C57BL/6J mice; Table 8, 11 Gy, 1 dose daily for 7 days, Day 10
  Number of mice surviving: 0
C57BL/6J mice; Table 8, 11 Gy, 1 dose daily, continuous every day, Day 5
  Number of mice surviving: 3
C57BL/6J mice; Table 8, 11 Gy, 1 dose daily, continuous every day, Day 6
  Number of mice surviving: 3
C57BL/6J mice; Table 8, 11 Gy, 1 dose daily, continuous every day, Day 7
  Number of mice surviving: 3
C57BL/6J mice; Table 8, 11 Gy, 1 dose daily, continuous every day, Day 8
  Number of mice surviving: 3
C57BL/6J mice; Table 8, 11 Gy, 1 dose daily, continuous every day, Day 9
  Number of mice surviving: 2
C57BL/6J mice; Table 8, 11 Gy, 1 dose daily, continuous every day, Day 10
  Number of mice surviving: 0
C57BL/6J mice; Table 8, 11 Gy, 7 days, 2 dose daily, Day 5
  Number of mice surviving: 3
C57BL/6J mice; Table 8, 11 Gy, 7 days, 2 dose daily, Day 6
  Number of mice surviving: 3
C57BL/6J mice; Table 8, 11 Gy, 7 days, 2 dose daily, Day 7
  Number of mice surviving: 3
C57BL/6J mice; Table 8, 11 Gy, 7 days, 2 dose daily, Day 8
  Number of mice surviving: 3
C57BL/6J mice; Table 8, 11 Gy, 7 days, 2 dose daily, Day 9
  Number of mice surviving: 2
C57BL/6J mice; Table 8, 11 Gy, 7 days, 2 dose daily, Day 10
  Number of mice surviving: 0
